Experimental data as given in patent US11674140B2, “Compositions and methods for treating facioscapulohumeral dystrophy” (THE CHILDREN'S MEDICAL CENTER CORPORATION, priority 2017, dated 2023).
Entries after “also recorded” stand apart in the source; their conditions may differ.

How the values were obtained:
DUX4 toxicity = assay: Caspase 3/7 activity assay (luciferase read-out) of DUX4-induced cell death; format: cell-based, human
Excerpt: FIGS. 14A and 14B illustrate a method for assaying cell death. FIG. 14A is a schematic diagram showing a method for assaying cell death by measuring Caspase 3/7 activity using a luciferase read-out.
FIG. 14B presents graphical data generated from the doxycycline-inducible assay.
The DUX4 gene encodes a transcription factor whose expression is rare, but extremely toxic. DUX4 transcription factor controls more than 100 early developmental genes. Misexpression of DUX4 is hypothesized to induce inappropriate expression of downstream genes to cause disease pathogenesis. […] Non-manifesting carriers of FSHD alleles who are found to express DUX4, point to the existence of genetic modifiers that may act to suppress DUX4 toxicity. The clinical, histopathological and molecular evidence for asymptomatic/non-manifesting carriers of FSHD is provided at FIGS. 1A-1F. As reported herein below, a genome-wide CRISPR loss-of-function library was used to identify genes that modulate DUX4 induced toxicity and act as genetic modifiers of FSHD (FIG. 1M). This powerful resource has enabled the assessment of the impact of all loss-of-function gene edits across the entire genome. This approach permitted the isolation of genes that influence survivability of DUX4 toxicity. These genes were validated in vitro by generation of individual knock-out lines, using a Caspase-3/7 assay to quantify reduced DUX4-induced apoptosis, and using inhibitor compounds to mimic gene knock-outs. These genes are also being evaluated in vivo.
The abundance of sgRNAs in each of the LOF cell lines was measured (FIG. 12). Each sgRNA is specific to the gene. Single gene knock-outs were generated using a lenti-CRISPR plasmid. […] To determine whether the results observed with Hif1a knockout could be recapitulated using an inhibitor of Hif1a, experiments with small compound inhibitors were carried out (FIGS. 15A, 15B, 16C, 16D). […] Herbimycin A is a benzoquinone drug (used for anti-cancer treatment) that binds and inhibits heat shock protein 90 (HSP90) chaperone (tyrosine kinase inhibitor) and is known to deplete dephosphorylated HIF1a. […]

DUX4 inducible cell line = assay: Cell death assay: caspase fluorescence (FITC) in DUX4 inducible cell line after doxycycline; format: cell-based; conditions: after 48 hours of doxycycline treatment
Method: FIG. 17A includes a series of micrographs. Fluorescence from labeled caspase is visible (fluorescein isothiocynate (FITC)) in a DUX4 inducible cell line after 48 hours of doxy cy cline treatment.
Cell death assay were then used to validate single knock-outs cell lines (FIGS. 17A-17C).

[1] = test system: FSHD biomarkers MBDL3L3, TRIM42 and ZSCAN4; assay: Quantitative real-time PCR of FSHD biomarkers in patient myotubes; format: cell-based, human
Method: One common way to test potential therapies for FSHD is to measure a reduction in FSHD biomarker genes (FIG. 16B). […] Briefly, patient primary myoblasts (17A and 16A) were placed in differentiation media. At day four, drug compounds were added, and myotubes were harvested 24 hours later. RNA extraction and cDNA synthesis was performed. Quantitative real-time PCR for FSHD biomarkers levels of MBDL3L3, TRIM42 and ZSCAN4 was performed. Results indicated a significant reduction in biomarker levels for the majority of drugs tested.

DUX4-injected zebrafish = DUX4-injected zebrafish model of FSHD; format: in vivo; conditions: drug 24 hr post-injection; day 7; compared to DUX4-injected no drug control group
Excerpt: FSHD has proven to be a difficult disease to model in animals given the primate-specific origins of DUX4, its sporadic activation and mosaic expression, as well as the complex epigenetic components associated with the disease. Our published DUX4 zebrafish model was the first to recapitulate the muscle-eye-ear combination of phenotypes described in human FSHD (FIGS. 1N-A, 1N-B, 1N-C). […] These established DUX4 models of FSHD provide for functional follow-up experiments for candidate genes identified in CRISPR screens.
Drugs that show efficacy in vitro can be tested in a zebrafish model of FSHD. […] After injecting DUX4 into zebrafish, the test subjects were then treated with the four drug compounds 24 hr post-injection. Injected fish were categorized into affected or unaffected groups based on whole-body phenotype (FIG. 18A).

Row | Compound | efficacy in vitro measured by caspase 3/7 activity (DUX4 toxicity) | caspase fluorescence (DUX4 inducible cell line) | efficacy in patient cell lines [1] | FSHD biomarker levels (MBDL3L3, TRIM42, ZSCAN4) ([1]; patient primary myoblasts 16A and 17A, drug added at day four of differentiation, harvested 24 hours later) | suppression of DUX4 toxicity (DUX4 toxicity; 20 uM) | percentage of affected fish (whole-body phenotype) (DUX4-injected zebrafish)
1 | O=c1cc(N2CCOCC2)oc2c(-c3ccccc3)cccc12 [LY294002, Ly294002] | showed efficacy in vitro | reduced caspase fluorescence | efficacy | – | – | –
2 | COC(=O)c1ccc(O)c(NC(=O)COc2ccc(C34CC5CC(CC(C5)C3)C4)cc2)c1 [Hif1a inhibitor] | – | – | – | Dose-response reduction of biomarkers | – | –
3 | CO[C@H]1[C@@H](OC)C[C@H](C)[C@@H](OC)C2=CC(=O)C=C(NC(=O)/C(C)=C/C=C\[C@H](OC)[C@@H](OC(N)=O)/C(C)=C/[C@@H]1C)C2=O [Herbimycin A] | showed efficacy in vitro | reduced caspase fluorescence | efficacy | – | good suppression of DUX4 toxicity | significantly reduced; also recorded: significantly decreased percentage of affected fish
